Source: patent US4569791A, “Anti-diabetic compounds” (Eli Lilly and Company, priority 1984, dated 1986)

What was measured:
[1] = tested on: insulin receptor on IM-9 cells; assay: IM-9 Radioreceptor Assay (displacement of 125I-insulin); type: binding, human; conditions: for ED50: IM-9 cells, 125I-insulin 1-2×10^-11 M, 15° C., two hours; for Relative Potency: IM-9 radioreceptor assay, human proinsulin = 1
Method: A. IM-9 Radioreceptor Assay
IM-9 cells were grown in RPMI media containing 2 mM glutamine, 25 mM HEPES, and 10% fetal bovine serum. […] Incubations were carried out in 1.5 ml microfuge tubes at 15° C. for two hours. Concentrations of stock solutions containing insulin, proinsulin, or compound of this invention used in the binding studies were established by amino acid analysis and by their absorbance at 276 nm. The cells were resuspended during the assay every 30 minutes by inverting the tubes several times. At the end of the incubation, the tubes were centrifuged for one minute in a Beckman Microfuge, the supernant was aspirated, the tips of the tubes containing the cell pellet were excised, and the radioactivity was measured.

[2] = tested on: insulin receptor on isolated fat cells; assay: Isolated Fat Cell Radioreceptor Assay (displacement of 125I-labeled insulin); type: binding; conditions: for Relative Potency: isolated fat cell radioreceptor assay, human proinsulin = 1; for ED50: isolated fat cells, 125I-labeled insulin 1-2×10^-11 M, 15° C., two hours
Method: B. Isolated Fat Cell Radioreceptor Assay
Isolated fat cells were prepared by a modification [Huber, C. T., Solomon, S. S., and Duckworth, W. C., J. Clin. Invest. […] All incubations were in Krebs-Ringer-Hepes (KRH) buffer, pH 7.4, with 4% bovine serum albumin (BSA) in a total volume of 2 ml. […] At selected times, triplicate 300 μl aliquots were removed and added to microfuge tubes containing 100 μl dinonyl phthalate [see Gliemann, J., Osterlind, K., Vinten, J., and Gammeltoft, S., Biochem. Biophys. Acta. […] After centrifugation for one minute in a microfuge, the tubes were cut through the oil layer, and the cell pellet was counted using a gamma counter to determine binding.

[3] = tested on: isolated rat adipocytes; assay: Biological Activity in Isolated Rat Adipocytes (incorporation of 2-3H-glucose in total fat cell lipid); type: cell-based; conditions: for Relative Potency: biological activity in rat adipocytes, human proinsulin = 1; for ED50: rat adipocytes, 2-3H-glucose incorporation into lipid, 37° for 1 hr, mean ±SEM
Method: C. Biological Activity in Isolated Rat Adipocytes
Adipocytes were prepared from epididymal fat pads by a modification (Huber, supra) of the collagenase digestion procedure of Rodbell, supra. Krebs-Ringer-HEPES (KRH) buffer, pH 7.4, containing 4% bovine serum albumin and 0.55 mM glucose was used in all isolation and incubation steps.
Biological activity was assessed according to the method of Moody, A. J., Stan, M. A., Stan, M., and Glieman, J., Horm. Metab. Res. 6, 12-16 (1974) by monitoring the incorporation of 2-^3 H-glucose in total fat cell lipid. […] Radioactivity was determined in a Searle Isocap 300 liquid scintillation counter at an efficiency of approximately 30%. Blanks were prepared in which the scintillation fluid was added to the vials prior to the addition of cells. The average counts obtained from these vials were subtracted from those observed in all other samples.
Competitive binding curves and biological activity dose-response curves were analyzed using the PREFIT and ALLFIT programs [DeLean, A., Munson, P. J., and Rodbard, D., Am. J. Physiol. 235, E97-E102 (1978)] based on a four-parameter logistic model. These analyses indicated the concentration of insulin or proinsulin necessary to produce a half-maximal response, as well as the maximal and minimal values. All values are presented as the mean ±SEM.

Substance | ED50 [1] | Relative Potency [1] | Relative Potency [2] | ED50 [2] | Relative Potency [3] | ED50 [3]
Human Proinsulin [reference compound] | 2.97 ± 0.2 × 10^-8 M | 1 | 1 | 2.55 ± 0.6 × 10^-7 M | 1 | 1.24 ± 0.2 × 10^-8 M
Human Insulin [reference compound] |  |  |  |  |  | 5.32 ± 0.7 × 10^-11 M
des(31,32)HPI [des (31,32) HPI] | 5.60 ± 0.3 × 10^-9 M | 5 | 9 | 2.85 ± 0.1 × 10^-8 M | 5 | 2.68 ± 0.5 × 10^-9 M
(32-33 split)HPI [(32-33 split) HPI] | 5.92 ± 0.7 × 10^-9 M | 5 | 5 | 5.29 ± 1.8 × 10^-8 M | 5 | 2.56 ± 0.2 × 10^-9 M
